{"source": "patent US20210346461A1", "about": "“UTILIZATION OF ENDOGENOUS OUBAIN-REGULATING COMPOUNDS AND COMPOSITIONS THEREOF IN TREATMENT OF VASCULAR DISEASE” (priority 2020, published 2021)", "key": {"[1]": {"tested_on": "pregnant uterine arteries", "experiment": "PGI2 release/response in pregnant uterine arteries", "type": "cell-based", "description": "FIG. 1A is a graph of laboratory data indicating PGI2 response in pregnant uterine arteries at various levels of Ouabain, wherein GABA is provided and Taurine is not—both without and with the provision of AII.\nFIG. 1B is a graph of laboratory data indicating PGI2 response in pregnant uterine arteries at various levels of Ouabain, wherein both GABA and Taurine are provided—without and with the provision of AII.\nFIG. 3A is a graph of laboratory data indicating PGI2 response in pregnant uterine arteries at various levels of GABA, wherein neither Taurine nor Ouabain is provided—without and with the provision of AII.\nFIGS. 4A and 4B are graphs of laboratory data illustrating PGI2 response to taurine levels, GABA levels, and the provision of AII in pregnant uterine vessels with lower and higher Ouabain conditions, respectively.\nFIGS. 5B is a graph of laboratory data illustrating PGI2 response in pregnant uterine arteries to the provision of various combinations of GABA, AII, and bicuculine.\n(§1) FIG. 6 is a graph illustrating changes in PGI2 response versus basal levels, in both pregnant uterine vessels and pregnant systemic vessels, when the endothelium is removed."}, "[2]": {"tested_on": "pregnant systemic arteries", "experiment": "PGI2 release/response in pregnant systemic arteries", "type": "cell-based", "description": "FIG. 3B is a graph of laboratory data indicating PGI2 response in pregnant systemic arteries at various levels of GABA, wherein neither Taurine nor Ouabain is provided—without and with the provision of AII.\nFIGS. 5A is a graph of laboratory data illustrating PGI2 response in pregnant systemic arteries to the provision of various combinations of GABA, AII, and bicuculine.\nas §1"}, "Cyclooxygenase (COX)": {"tested_on": "Cyclooxygenase (COX)", "conditions": "pharmacological blockade of COX; cited from earlier work"}, "[3]": {"tested_on": "intact nonpregnant systemic vessels", "experiment": "PGI2 response in intact nonpregnant systemic vessels (GABA dose response curves)", "type": "cell-based, sheep", "conditions": "for PGI2 levels on addition of Nanomolar Ouabain: most concentrations of GABA", "description": "FIG. 2A is a graph of laboratory data indicating PGI2 response in intact nonpregnant systemic vessels at various levels of GABA, wherein neither Taurine nor Ouabain is provided without and with the provision of AII.\nFIG. 2B is a graph of laboratory data indicating PGI2 response in intact nonpregnant systemic vessels at various levels of GABA, wherein neither Taurine nor AII is provided—without and with the provision of Ouabain.\nFIG. 2C is a graph of laboratory data indicating PGI2 response in intact nonpregnant systemic vessels at various levels of GABA, wherein AII is provided and Taurine is not—without and with the provision of Ouabain.\nIn FIGS. 2A-2C, GABA dose response curves of systemic vessels in 18 day postpartum sheep are provided. These vessels are believed to be representative of non-pregnant normotensive systemic vessels. […] Accordingly, it appears that at least one of Taurine or EO (or the like) may be needed to up-regulate the GABA-a receptor to augment PGI2 levels in the presence of nanomolar ouabain, or may at least be substantially helpful to increase PGI2 levels."}, "[4]": {"conditions": "cited from earlier work"}}, "note": "“Also recorded” adds a separate entry of the source. Like-named read-outs stand apart in the source and are kept apart here.", "data": [{"molecule": "CN1CCc2cc3c(cc2[C@H]1[C@@H]1OC(=O)c2c1ccc1c2OCO1)OCO3", "note": "[bicuculine]", "values": [{"measurement": "PGI2 release on blocking GABA-a receptors", "setting": "[1]; FIG. 5B, also when additional GABA was added (col. 5)", "value": "substantially reduced PGI2 release"}, {"measurement": "PGI2 release on blocking GABA-a receptors", "setting": "[2]; FIG. 5A", "value": "reduced PGI2 release"}]}, {"molecule": "NCC(CP(=O)(O)O)c1ccc(Cl)cc1", "note": "(stereo not shown) [phaclofen]", "values": [{"measurement": "PGI2 release on GABA-b receptor blockade", "setting": "[1]; experiments similar to FIGS. 5A/5B in pregnant vessels, data not shown", "value": "did not affect PGI2 release"}]}, {"molecule": "COc1ccc2c(c1)c(CC(=O)O)c(C)n2C(=O)c1ccc(Cl)cc1", "note": "[indomethacin]", "values": [{"measurement": "resting blood pressure", "setting": "Cyclooxygenase (COX)", "value": "does not substantially affect resting blood pressure"}]}, {"molecule": "Angiotensin II [AII]", "values": [{"measurement": "effect of presence or absence of AII on PGI2 release", "setting": "[1]; FIG. 1A, GABA provided, without taurine, various levels of Ouabain", "value": "negligible effect on PGI2 release"}, {"measurement": "PGI2 release difference responsive to presence or absence of AII", "setting": "[1]; FIG. 3A, GABA concentrations of −7M, −6M, −5M", "value": "no significant PGI2 release difference"}, {"measurement": "PGI2 release with AII vs without AII", "setting": "[1]; FIG. 3A, most levels of GABA, no Taurine, no Ouabain", "value": "more PGI2 is released"}, {"measurement": "PGI2 release on further addition of AII", "setting": "[1]; FIG. 5B col. 4, bicuculine and GABA present", "value": "even further decreased PGI2"}, {"measurement": "PGI2 release in the presence of AII", "setting": "[1]; FIG. 6, endothelium removed", "value": "reduced"}, {"measurement": "relationship between PGI2 release and AII presence", "setting": "[2]; FIG. 3B, various GABA levels, no Taurine, no Ouabain, compared with uterine circuit", "value": "substantially inverted"}, {"measurement": "PGI2 release in the presence of AII", "setting": "[2]; FIG. 6, endothelium removed", "value": "increased"}, {"measurement": "PGI2 formation by presence or absence of Angiotensin II", "setting": "[3]; FIG. 2A, exposed to GABA, without Taurine or EO", "value": "no significant PGI2 formation"}, {"measurement": "PGI2 release on addition of AII", "setting": "[3]; FIG. 2B vs 2C, in the presence of Ouabain, especially at higher GABA", "value": "substantially more PGI2 release"}]}, {"molecule": "CC(=O)Oc1ccccc1C(=O)O", "note": "[aspirin]", "values": [{"measurement": "resting blood pressure", "setting": "Cyclooxygenase (COX)", "value": "does not substantially affect resting blood pressure"}]}, {"molecule": "C[C@@H]1O[C@@H](O[C@H]2C[C@@H](O)[C@]3(CO)[C@H]4[C@H](O)C[C@]5(C)[C@@H](C6=CC(=O)OC6)CC[C@]5(O)[C@@H]4CC[C@]3(O)C2)[C@H](O)[C@H](O)[C@H]1O", "note": "[Ouabain]", "values": [{"measurement": "PGI2 release with increase in Ouabain", "setting": "[1]; FIGS. 4A/4B, Ouabain from −10M to −9M, low taurine, GABA approx. −7M", "value": "higher PGI2 release"}, {"measurement": "PGI2 levels on addition of Nanomolar Ouabain", "setting": "[3]; FIG. 2B, without AII, no Taurine", "value": "significant increase in PGI2 levels"}, {"measurement": "PGI2 levels on addition of Nanomolar Ouabain", "setting": "[3]; FIG. 2C, with AII, no Taurine", "value": "significant increase in PGI2 levels"}]}, {"molecule": "NCCCC(=O)O", "note": "[GABA]", "values": [{"measurement": "PGI2 release with GABA and AII", "setting": "[1]; FIG. 4A, low levels of taurine and low Ouabain", "value": "PGI2 release increased"}, {"measurement": "PGI2 release on addition of GABA", "setting": "[1]; FIG. 5B col. 2, GABA alone, no AII", "value": "insignificant effect on PGI2 release"}, {"measurement": "PGI2 release on addition of GABA", "setting": "[1]; together with AII", "value": "increase PGI2; also recorded: increased PGI2 release"}, {"measurement": "PGI2 release on exposure to GABA", "setting": "[2]; absence of AII", "value": "increased PGI2 release; also recorded: responded to make PGI2"}, {"measurement": "PGI2 response to GABA", "setting": "[3]; FIG. 2A/2B, 18 day postpartum sheep, no Ouabain, no Taurine", "value": "no PGI2 response; also recorded: did not release significant PGI2"}, {"measurement": "blood pressure", "setting": "[4]; eHTN humans", "value": "lower blood pressure"}, {"measurement": "blood pressure", "setting": "[4]; normotensive patients", "value": "no effect to reduce blood pressure"}]}, {"molecule": "NCCS(=O)(=O)O", "note": "[Taurine, 2-amino-ethane sulfonic acid]", "values": [{"measurement": "overall PGI2 release with vs without Taurine", "setting": "[1]; FIG. 1A vs 1B, regardless of AII presence", "value": "overall PGI2 release appears higher without Taurine"}]}]}
